US6670367B1, “Azinyloxy, and phenoxy-diaryl-carboxylic acid derivatives, their preparation and use as mixed ETA/ETB endothelin receptor antagonists” (Abbott GmbH & Co., KG, priority 1996, dated 2003)

What was measured:
human ETB receptor = target: T1, human ETB receptor (Homo sapiens, UniProt P24530); test: ETB receptor binding assay (125I-ET3, membranes of receptor-expressing CHO cells); conditions: cloned human ETB receptor, CHO cell membranes, 25 pM 125I-ET3, 25° C., 30 min
T1 construct: expressed in transfected cells; host or cells: CHO cells (membrane preparation)
T1 sequence (P24530 27-442): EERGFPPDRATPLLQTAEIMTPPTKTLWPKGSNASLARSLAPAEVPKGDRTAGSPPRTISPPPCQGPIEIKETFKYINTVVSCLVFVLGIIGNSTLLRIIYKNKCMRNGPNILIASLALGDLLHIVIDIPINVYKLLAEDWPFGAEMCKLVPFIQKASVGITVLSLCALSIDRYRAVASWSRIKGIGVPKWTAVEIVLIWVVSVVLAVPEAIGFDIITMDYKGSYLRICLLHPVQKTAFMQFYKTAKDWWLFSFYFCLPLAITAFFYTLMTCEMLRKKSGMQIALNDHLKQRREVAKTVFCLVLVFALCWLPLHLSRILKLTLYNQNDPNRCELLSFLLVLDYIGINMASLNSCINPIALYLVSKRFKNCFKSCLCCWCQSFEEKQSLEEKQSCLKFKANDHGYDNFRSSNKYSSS
Experimental: (§1) Cloned human ETA or ETB receptor-expressing CHO cells were employed for binding studies.
(§2) The ETA or ETB receptor-expressing CHO cells were grown in DMEM NUT MIX F12 medium (Gibco, No. 21331-020) with 10% fetal calf serum (PAA Laboratories GmbH, Linz, No. A15-022), 1 mM glutamine (Gibco No. 25030-024), 100 U/ml penicillin and 100 μg/ml streptomycin (Gibco, Sigma No. P-0781). After 48 hours, the cells were washed with PBS and incubated with 0.05% trypsin-containing PBS at 37° C. for 5 minutes. Neutralization with medium was then carried out, and the cells were collected by centrifugation at 300×g.
(§3) For the membrane preparation, the cells were adjusted to a concentration of 10^8 cells/ml of buffer (50 mM tris.HCL buffer, pH 7.4) and then disintegrated by ultrasound (Branson Sonifier 250, 40-70 seconds/constant/output 20).
(§4) For the ETA and ETB receptor binding assays, the membranes were suspended in incubation buffer (50 mM tris-HCl, pH 7,4 with 5 mM MnCl2, 40 μg/ml bacitracin and 0.2% BSA) at a concentration of 50 μg of protein per assay mixture, and incubated with 25 pM ^125I-ET1 (ETA receptor assay) or 25 pM ^125I-ET3 (ETB receptor assay) in the presence and absence of test substance at 25° C. The nonspecific binding was determined with 10^−7 M ET1. Filtration was carried out after 30 min through GF/B glassfiber filters (Whatman, England) in a Skatron cell collector (Skatron, Lier, Norway) to separate free and bound radio ligands, and the filters were washed with ice-cold tris-HCl buffer, pH 7.4 with 0.2% BSA. The radioactivity collected on the filters was quantified using a
(§5) Packard 2200 CA liquid scintillation counter.

human ETA receptor = target: T2, human ETA receptor (Homo sapiens, UniProt P25101); test: ETA receptor binding assay (125I-ET1, membranes of receptor-expressing CHO cells); conditions: cloned human ETA receptor, CHO cell membranes, 25 pM 125I-ET1, 25° C., 30 min
T2 construct: expressed in transfected cells; host or cells: CHO cells (membrane preparation)
T2 sequence (P25101 21-427): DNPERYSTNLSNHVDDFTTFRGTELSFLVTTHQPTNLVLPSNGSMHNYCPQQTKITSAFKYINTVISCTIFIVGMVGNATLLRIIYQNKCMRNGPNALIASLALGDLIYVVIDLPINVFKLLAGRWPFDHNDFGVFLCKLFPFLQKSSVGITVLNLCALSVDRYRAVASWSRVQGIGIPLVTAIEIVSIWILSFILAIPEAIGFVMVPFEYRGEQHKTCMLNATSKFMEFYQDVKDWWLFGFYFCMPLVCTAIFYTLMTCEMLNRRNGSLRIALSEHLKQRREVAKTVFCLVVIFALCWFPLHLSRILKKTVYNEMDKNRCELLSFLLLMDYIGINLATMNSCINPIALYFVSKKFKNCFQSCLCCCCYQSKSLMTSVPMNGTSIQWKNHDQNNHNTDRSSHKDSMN
Experimental: as §1, §2, §3, §4, §5

SMILES | Ki (human ETB receptor) | Ki (human ETA receptor) | melting point
CCOc1ccc(CCOC(c2ccccc2)(c2ccccc2)C(Oc2nc(C)cc(C)n2)C(=O)O)cc1OC (stereo not shown) [Compound I-146, 2-(4,6-Dimethyl-2-pyrimidinyloxy)-3-(2-(4-ethoxy-3-methoxyphenyl)ethoxy)-3,3-diphenylpropionic Acid] | 29 nM | 4 nM | 
COc1cc(C)nc(OC(C(=O)O)C(OCCc2ccccc2)(c2ccccc2)c2ccccc2)n1 (stereo not shown) [Compound I-719, 2-(4-Methoxy-6-methyl-2-pyrimidinyloxy)-3-(2-phenylethoxy)-3,3-diphenylpropionic Acid] |  |  | 155 °C (dec.)
COc1ccc(CCOC(c2ccccc2)(c2ccccc2)[C@@H](Oc2nc(C)cc(C)n2)C(=O)O)cc1OC [I-445 (R) enantiomer] | 140 nM | 65 nM | 
COc1ccc(CCOC(c2ccccc2)(c2ccccc2)[C@H](Oc2nc(C)cc(C)n2)C(=O)O)cc1OC [I-445 (S) enantiomer, (S)-2-(4,6-Dimethylpyrimidin-2-yloxy)-3-(2-(3,4-dimethoxyphenyl)ethoxy)-3,3-diphenylpropionic Acid] | 4.1 nM | 1.3 nM | 
Cc1cc(C)nc(OC(C(=O)O)C(OCCCc2ccccc2Cl)(c2ccccc2)c2ccccc2)n1 (stereo not shown) [Compound I-384, 2-(4,6-Dimethyl-2-pyrimidinyloxy)-3-(3-(2-chlorophenyl)propoxy)-3,3-diphenylpropionic Acid] |  |  | 172 to 178 °C
COc1ccc(CCOC(c2ccccc2)(c2ccccc2)C(Oc2nc(C)cc(C)n2)C(=O)O)cc1 (stereo not shown) [Compound I-585, 2-(4,6-Dimethyl-2-pyrimidinyloxy)-3-(2-(4-methoxyphenyl)ethoxy)-3,3-diphenylpropionic Acid] | 23 nM | 6 nM | 
Cc1cc(C)nc(OC(C(=O)O)C(OCCc2ccc(C(C)C)cc2)(c2ccccc2)c2ccccc2)n1 (stereo not shown) [Compound I-672, 2-(4,6-Dimethyl-2-pyrimidinyloxy)-3-(2-(4-i-propylphenyl)ethoxy)-3,3-diphenylpropionic Acid] | 185 nM | 60 nM | 
CCCCOc1ccc(CCOC(c2ccccc2)(c2ccccc2)C(Oc2nc(C)cc(C)n2)C(=O)O)cc1 (stereo not shown) [Compound I-70, 2-(4,6-Dimethyl-2-pyrimidinyloxy)-3-(2-(4-butoxyphenyl)ethoxy)-3,3-diphenylpropionic Acid] |  |  | 122 to 125 °C
COc1cc(C)nc(OC(C(=O)O)C(OCCCc2ccccc2)(c2ccccc2)c2ccccc2)n1 (stereo not shown) [Compound I-499, 2-(4-Methoxy-6-methyl-2-pyrimidinyloxy)-3-(3-phenylpropoxy)-3,3-diphenylpropionic Acid] | 135 nM | 31 nM | 
COc1cc(C)nc(OC(C(=O)O)C(O/C=C/Cc2ccccc2)(c2ccccc2)c2ccccc2)n1 (stereo not shown) [Compound I-44, 2-(4-Methoxy-6-methyl-2-pyrimidinyloxy)-3-(3-phenyl-(2E)-propenoxy)-3,3-diphenylpropionic Acid] |  |  | 171 to 174 °C
CCCCOc1ccc(CCOC(c2ccccc2)(c2ccccc2)C(Oc2nc(C)cc(OC)n2)C(=O)O)cc1 (stereo not shown) [Compound I-71, 2-(4-Methoxy-6-methyl-2-pyrimidinyloxy)-3-(2-(4-butoxyphenyl)ethoxy)-3,3-diphenylpropionic Acid] |  |  | 118 to 122 °C
Cc1cc(C)nc(OC(C(=O)O)C(OCCc2ccccc2)(c2ccccc2)c2ccccc2)n1 (stereo not shown) [Compound I-720, 2-(4,6-Dimethyl-2-pyrimidinyloxy)-3-(2-phenylethoxy)-3,3-diphenyl propionic Acid] |  |  | 130 to 133 °C
COc1cc(C)nc(OC(C(=O)O)C(OCCc2ccc(Cl)cc2)(c2ccccc2)c2ccccc2)n1 (stereo not shown) [Compound I-746, 2-(4-Methoxy-6-methyl-2-pyrimidinyloxy)-3-(2-(4-chlorophenyl)ethoxy)-3,3-diphenylpropionic Acid] |  |  | 93 to 98 °C
Cc1cc(C)nc(OC(C(=O)O)C(O/C=C/Cc2ccccc2)(c2ccccc2)c2ccccc2)n1 (stereo not shown) [Compound I-27, 2-(4,6-Dimethyl-2-pyrimidinyloxy)-3-(3-phenyl-(2E)-propenoxy)-3,3-diphenylpropionic Acid] |  |  | 128 to 133 °C
COc1ccc(CCCOC(c2ccccc2)(c2ccccc2)C(Oc2nc(C)cc(C)n2)C(=O)O)cc1 (stereo not shown) [Compound I-555, 2-(4,6-Dimethyl-2-pyrimidinyloxy)-3-(3-(4-methoxyphenyl)propoxy)-3,3-diphenylpropionic Acid] |  |  | 165 to 170 °C

Other lines, results leading:

Ki (human ETB receptor) | Ki (human ETA receptor) | melting point | SMILES
35 nM | 35 nM |  | CCc1ccc(C(OCCc2ccc(OC)c(OC)c2)(c2ccc(CC)cc2)C(Oc2nc(C)cc(OC)n2)C(=O)O)cc1 (stereo not shown) [Compound I-116, 2-(4-Methoxy-6-methyl-2-pyrimidinyloxy)-3-(2-(3,4-dimethoxyphenyl)ethoxy)-3,3-di(4-ethylphenyl)propionic Acid]
 |  | 160 to 165 °C | COc1ccc(CCCOC(c2ccccc2)(c2ccccc2)C(Oc2nc(C)cc(OC)n2)C(=O)O)cc1 (stereo not shown) [Compound I-554, 2-(4-Methoxy-6-methyl-2-pyrimidinyloxy)-3-(3-(4-methoxyphenyl)propoxy)-3,3-diphenylpropionic Acid]
 |  | 90 to 100 °C | COc1cc(C)nc(OC(C(=O)O)C(OCCc2ccc(C)cc2)(c2ccc(Cl)cc2)c2ccc(Cl)cc2)n1 (stereo not shown) [Compound I-710, 2-(4-Methoxy-6-methyl-2-pyrimidinyloxy)-3-(2-(4-methylphenyl)ethoxy)-3,3-di(4-chlorophenyl)propionic Acid]
 |  | 85 to 90 °C | COc1cc(C)nc(OC(C(=O)O)C(OCCc2ccccc2OC)(c2ccc(Cl)cc2)c2ccc(Cl)cc2)n1 (stereo not shown) [Compound I-487, 2-(4-Methoxy-6-methyl-2-pyrimidinyloxy)-3-(2-(2-methoxyphenyl)ethoxy)-3,3-di(4-chlorophenyl)propionic Acid]
23 nM | 3 nM |  | COc1ccc(CCOC(c2ccccc2)(c2ccccc2)C(Oc2nc(C)cc(OC)n2)C(=O)O)cc1 (stereo not shown) [Compound I-622, 2-(4-Methoxy-6-methyl-2-pyrimidinyloxy)-3-(2-(4-methoxyphenyl)ethoxy)-3,3-diphenylpropionic Acid]
 |  | 115 to 119 °C | CCCOc1ccc(CCOC(c2ccccc2)(c2ccccc2)C(Oc2nc(C)cc(OC)n2)C(=O)O)cc1 (stereo not shown) [Compound I-69, 2-(4-Methoxy-6-methyl-2-pyrimidinyloxy)-3-(2-(4-propoxyphenyl)ethoxy)-3,3-diphenylpropionic Acid]
 |  | 150 to 155 °C | CCc1ccc(C(OCCc2ccc(OC)cc2)(c2ccc(CC)cc2)C(Oc2nc(C)cc(OC)n2)C(=O)O)cc1 (stereo not shown) [Compound I-147, 2-(4-Methoxy-6-methyl-2-pyrimidinyloxy)-3-(2-(4-methoxyphenyl)ethoxy)-3,3-di(4-ethylphenyl)propionic Acid]
 |  | 130 to 133 °C | CCc1ccc(C(OCCc2ccc(OC)cc2)(c2ccc(CC)cc2)C(Oc2nc(C)cc(C)n2)C(=O)O)cc1 (stereo not shown) [Compound I-148, 2-(4,6-Dimethyl-2-pyrimidinyloxy)-3-(2-(4-methoxyphenyl)ethoxy)-3,3-di(4-ethylphenyl)propionic Acid]
82 nM | 132 nM |  | COc1ccc(CCOC(c2ccc(C)cc2)(c2ccc(C)cc2)C(Oc2nc(OC)c3c(n2)OCC3)C(=O)O)cc1 (stereo not shown) [Compound I-355]
 |  | 145 to 147 °C | COc1cc(C)nc(OC(C(=O)O)C(OCCc2ccc(C)cc2)(c2ccccc2)c2ccccc2)n1 (stereo not shown) [Compound I-465, 2-(4-Methoxy-6-methyl-2-pyrimidinyloxy)-3-(2-(4-methylphenyl)ethoxy)-3,3-diphenylpropionic Acid]
